Patent publication US8921267B2, “Safening 6-(trisubstituted phenyl)-4-amino-2-pyridinecarboxylate herbicide injury on cereal crops” (Dow AgroSciences LLC, priority 2008, dated 2014)

How the values were obtained:
[1] = test system: bird's-eye speedwell (Veronica persica L; VERPE); assay: Postemergence herbicidal activity, greenhouse, visual injury: bird's-eye speedwell; format: in vivo; set-up: key: visual injury, 0–100%: 0 = no injury, 100 = complete kill
Description: (§1) Evaluation of Postemergence Herbicidal Safening in Cereal Crops
(§2) Seeds of the desired test plant species were planted in Sun Gro MetroMix® 306 planting mixture, which typically has a pH of 6.0 to 6.8 and an organic matter content of about 30 percent, in plastic pots with a surface area of 103.2 square centimeters (cm^2). When required to ensure good germination and healthy plants, a fungicide treatment and/or other chemical or physical treatment was applied. The plants were grown for 7-36 days (d) in a greenhouse with an approximate 14-hour (h) photoperiod which was maintained at about 18° C. during the day and 17° C. during the night. Nutrients and water were added on a regular basis and supplemental lighting was provided with overhead metal halide 1000-Watt lamps as necessary. The plants were employed for testing when they reached the second or third true leaf stage.
(§3) Weighed amounts of esters (methyl) or salts (TEA [triethylammonium], K [potassium]) of 4-amino-3-chloro-6-(4-chloro-2-fluoro-3-methoxyphenyl)pyridine-2-carboxylic acid (Compound 1) were dissolved in a volume of 97:3 volume/volume (v/v) acetone/dimethylsulfoxide (DMSO) to obtain stock solutions. […] The concentrated stock solutions were diluted with an aqueous mixture of 1.5% v/v of Agri-dex crop oil concentrate to provide the appropriate application rates. Compound requirements are based upon a 12 mL application volume at a rate of 187 liters per hectare (L/ha). Stocks solutions of the safeners were prepared following the same procedure. Spray solutions of the safeners and experimental compound mixtures were prepared by adding the stock solutions to the appropriate amount of dilution solution to form a 12 mL spray solution with active ingredients in two-way combinations. Formulated compounds were applied to the plant material with an overhead Mandel track sprayer equipped with 8002E nozzles calibrated to deliver 187 L/ha over an application area of 0.503 square meters (m^2) at a spray height of 18 inches (43 centimeters (cm)) above average plant canopy. Control plants were sprayed in the same manner with the solvent blank.
(§4) The treated plants and control plants were placed in a greenhouse as described above and watered by sub-irrigation to prevent wash-off of the test compounds. After 20-22 d, the condition of the test plants as compared with that of the control plants was determined visually and scored on a scale of 0 to 100 percent where 0 corresponds to no injury and 100 corresponds to complete kill.
(§5) Colby's equation was used to determine the herbicidal effects expected from the mixtures (Colby, S. R. Calculation of the synergistic and antagonistic response of herbicide combinations. Weeds 1967, 15, 20-22.).
(§6) The following equation was used to calculate the expected activity of mixtures containing two active ingredients, A and B: Expected=A+B−(A×B/100)
(§7) A=observed efficacy of active ingredient A at the same concentration as used in the mixture.
(§8) B=observed efficacy of active ingredient B at the same concentration as used in the mixture.

[2] = test system: chickweed (Stellaria media L; STEME); assay: Postemergence herbicidal activity, greenhouse, visual injury: chickweed; format: in vivo; set-up: key: visual injury, 0–100%: 0 = no injury, 100 = complete kill
Description: as §1, §2, §3, §4, §5, §6, §7, §8

[3] = test system: purple deadnettle (Lamium purpureum L; LAMPU); assay: Postemergence herbicidal activity, greenhouse, visual injury: purple deadnettle; format: in vivo; set-up: key: visual injury, 0–100%: 0 = no injury, 100 = complete kill
Description: as §1, §2, §3, §4, §5, §6, §7, §8

[4] = test system: wild pansy (Viola tricolor L; VIOTR); assay: Postemergence herbicidal activity, greenhouse, visual injury: wild pansy; format: in vivo; set-up: key: visual injury, 0–100%: 0 = no injury, 100 = complete kill
Description: as §1, §2, §3, §4, §5, §6, §7, §8

[5] = test system: cleavers (Galium aparine L; GALAP); assay: Postemergence herbicidal activity, greenhouse, visual injury: cleavers; format: in vivo; set-up: key: visual injury, 0–100%: 0 = no injury, 100 = complete kill
Description: as §1, §2, §3, §4, §5, §6, §7, §8

[6] = test system: wild buckwheat (Polygonum convolvulus L; POLCO); assay: Postemergence herbicidal activity, greenhouse, visual injury: wild buckwheat; format: in vivo
Description: as §1, §2, §3, §4, §5, §6, §7, §8

[7] = test system: barley (Hordeum vulgare L; HORVS); assay: Postemergence herbicidal safening, greenhouse, visual injury: barley; format: in vivo
Description: as §1, §2, §3, §4, §5, §6, §7, §8

[8] = test system: corn poppy (Papaver rhoeas L; PAPRH); assay: Postemergence herbicidal activity, greenhouse, visual injury: corn poppy; format: in vivo
Description: as §1, §2, §3, §4, §5, §6, §7, §8

[9] = test system: wheat (Triticum aestivum L; TRZAS); assay: Postemergence herbicidal safening, greenhouse, visual injury: wheat; format: in vivo
Description: as §1, §2, §3, §4, §5, §6, §7, §8

barley (HORVW) = assay: Postemergence herbicidal safening, greenhouse, visual injury: barley (HORVW)
[10] = test system: Russian thistle (Salsola iberica L; SASKR); assay: Postemergence herbicidal activity, greenhouse, visual injury: Russian thistle; format: in vivo; set-up: key: visual injury, 0–100%: 0 = no injury, 100 = complete kill
Description: as §1, §2, §3, §4, §5, §6, §7, §8

[11] = test system: wheat (Triticum aestivum L; TRZAW); assay: Postemergence herbicidal safening, greenhouse, visual injury: wheat (TRZAW); format: in vivo
Description: as §1, §2, §3, §4, §5, §6, §7, §8

[12] = test system: durum wheat (Triticum durum L; TRZDU); assay: Postemergence herbicidal safening, greenhouse, visual injury: durum wheat; format: in vivo
Description: as §1, §2, §3, §4, §5, §6, §7, §8

[13] = Compound 1 Methyl ester 35 g/ha alone

## CC1(C)CN2C(=O)CCC2(C)N(C(=O)C(Cl)Cl)C1 (racemic) [Dicyclonon, (RS)-1-dichloroacetyl-3,3,8a-trimethylperhydropyrrolo[1,2]pyrimidin-6-one, reference compound]
[1]; applied alone at 17.5 g/ha
  VERPE Ob: 0%
[1]; applied alone at 35 g/ha
  VERPE Ob: 0%
[1]; applied alone at 70 g/ha
  VERPE Ob: 0%
[1]; applied alone at 140 g/ha
  VERPE Ob: 0%
[2]; applied alone at 17.5 g/ha
  STEME Ob: 0%
[2]; applied alone at 35 g/ha
  STEME Ob: 0%
[2]; applied alone at 70 g/ha
  STEME Ob: 0%
[2]; applied alone at 140 g/ha
  STEME Ob: 0%
[3]; safener 4.4 g/ha alone
  LAMPU Ob (Observed values): 0
[3]; safener 8.8 g/ha alone
  LAMPU Ob (Observed values): 0
[3]; safener 17.5 g/ha alone
  LAMPU Ob (Observed values): 0
[3]; safener 35 g/ha alone
  LAMPU Ob (Observed values): 0
[4]; applied alone at 17.5 g/ha
  VIOTR Ob: 0%
[4]; applied alone at 35 g/ha
  VIOTR Ob: 0%
[4]; applied alone at 70 g/ha
  VIOTR Ob: 0%
[4]; applied alone at 140 g/ha
  VIOTR Ob: 0%
[5]; applied alone at 17.5 g/ha
  GALAP Ob: 0%
[5]; applied alone at 35 g/ha
  GALAP Ob: 0%
[5]; applied alone at 70 g/ha
  GALAP Ob: 0%
[5]; applied alone at 140 g/ha
  GALAP Ob: 0%
[6]; applied alone at 17.5 g/ha
  POLCO Ob: 0%
[6]; applied alone at 35 g/ha
  POLCO Ob: 0%
[6]; applied alone at 70 g/ha
  POLCO Ob: 0%
[6]; applied alone at 140 g/ha
  POLCO Ob: 0%
[7]; applied alone at 17.5 g/ha
  HORVS Ob: 0%
[7]; applied alone at 35 g/ha
  HORVS Ob: 0%
[7]; applied alone at 70 g/ha
  HORVS Ob: 0%
[7]; applied alone at 140 g/ha
  HORVS Ob: 0%
[8]; applied alone at 17.5 g/ha
  PAPRH Ob: 0%
[8]; applied alone at 35 g/ha
  PAPRH Ob: 0%
[8]; applied alone at 70 g/ha
  PAPRH Ob: 0%
[8]; applied alone at 140 g/ha
  PAPRH Ob: 0%
[8]; safener 4.4 g/ha alone
  PAPRH Ob (Observed values): 0
[8]; safener 8.8 g/ha alone
  PAPRH Ob (Observed values): 0
[8]; safener 17.5 g/ha alone
  PAPRH Ob (Observed values): 0
[8]; safener 35 g/ha alone
  PAPRH Ob (Observed values): 0
[9]; applied alone at 17.5 g/ha
  TRZAS Ob: 0%
[9]; applied alone at 35 g/ha
  TRZAS Ob: 0%
[9]; applied alone at 70 g/ha
  TRZAS Ob: 0%
[9]; applied alone at 140 g/ha
  TRZAS Ob: 0%
Barley (HORVW); safener 4.4 g/ha alone
  HORVW Ob (Observed values): 0%
Barley (HORVW); safener 8.8 g/ha alone
  HORVW Ob (Observed values): 0%
Barley (HORVW); safener 17.5 g/ha alone
  HORVW Ob (Observed values): 0%
Barley (HORVW); safener 35 g/ha alone
  HORVW Ob (Observed values): 0%
[10]; applied alone at 17.5 g/ha
  SASKR Ob: 0%
[10]; applied alone at 35 g/ha
  SASKR Ob: 0%
[10]; applied alone at 70 g/ha
  SASKR Ob: 0%
[10]; applied alone at 140 g/ha
  SASKR Ob: 0%

## COC(=O)c1nc(-c2ccc(Cl)c(OC)c2F)cc(N)c1Cl [1 Methyl ester]
[11]; [13]
  TRZAW Ob (Observed values): 35%
[3]; [13]
  LAMPU Ob (Observed values): 97
[7]; [13]
  HORVS Ob (Observed values): 33
[8]; [13]
  PAPRH Ob (Observed values): 97
[9]; [13]
  TRZAS Ob (Observed values): 50
[12]; [13]
  TRZDU Ob (Observed values): 42%
Barley (HORVW); [13]
  HORVW Ob (Observed values): 50%

## O=C(C(Cl)Cl)N1CCOC12CCCCC2 [AD67, 4-(dichloroacetyl)-1-oxa-4-azaspiro[4,5]decane, reference compound]
[1]; applied alone at 17.5 g/ha
  VERPE Ob: 0%
[1]; applied alone at 35 g/ha
  VERPE Ob: 0%
[1]; applied alone at 70 g/ha
  VERPE Ob: 0%
[1]; applied alone at 140 g/ha
  VERPE Ob: 0%
[2]; applied alone at 17.5 g/ha
  STEME Ob: 0%
[2]; applied alone at 35 g/ha
  STEME Ob: 0%
[2]; applied alone at 70 g/ha
  STEME Ob: 0%
[2]; applied alone at 140 g/ha
  STEME Ob: 0%
[4]; applied alone at 17.5 g/ha
  VIOTR Ob: 0%
[4]; applied alone at 35 g/ha
  VIOTR Ob: 0%
[4]; applied alone at 70 g/ha
  VIOTR Ob: 0%
[4]; applied alone at 140 g/ha
  VIOTR Ob: 0%
[5]; applied alone at 17.5 g/ha
  GALAP Ob: 0%
[5]; applied alone at 35 g/ha
  GALAP Ob: 0%
[5]; applied alone at 70 g/ha
  GALAP Ob: 0%
[5]; applied alone at 140 g/ha
  GALAP Ob: 0%
[6]; applied alone at 17.5 g/ha
  POLCO Ob: 0%
[6]; applied alone at 35 g/ha
  POLCO Ob: 0%
[6]; applied alone at 70 g/ha
  POLCO Ob: 0%
[6]; applied alone at 140 g/ha
  POLCO Ob: 0%
[7]; applied alone at 17.5 g/ha
  HORVS Ob: 0%
[7]; applied alone at 35 g/ha
  HORVS Ob: 0%
[7]; applied alone at 70 g/ha
  HORVS Ob: 0%
[7]; applied alone at 140 g/ha
  HORVS Ob: 0%
[8]; applied alone at 17.5 g/ha
  PAPRH Ob: 0%
[8]; applied alone at 35 g/ha
  PAPRH Ob: 0%
[8]; applied alone at 70 g/ha
  PAPRH Ob: 0%
[8]; applied alone at 140 g/ha
  PAPRH Ob: 0%
[9]; applied alone at 17.5 g/ha
  TRZAS Ob: 0%
[9]; applied alone at 35 g/ha
  TRZAS Ob: 0%
[9]; applied alone at 70 g/ha
  TRZAS Ob: 0%
[9]; applied alone at 140 g/ha
  TRZAS Ob: 0%
[10]; applied alone at 17.5 g/ha
  SASKR Ob: 0%
[10]; applied alone at 35 g/ha
  SASKR Ob: 0%
[10]; applied alone at 70 g/ha
  SASKR Ob: 0%
[10]; applied alone at 140 g/ha
  SASKR Ob: 0%

## O=C(C(Cl)Cl)N1CCOC12CCCCC2 [AD-67]
[11]; safener 4.4 g/ha alone
  TRZAW Ob (Observed values): 0%
[11]; safener 8.8 g/ha alone
  TRZAW Ob (Observed values): 0%
[11]; safener 17.5 g/ha alone
  TRZAW Ob (Observed values): 0%
[11]; safener 35 g/ha alone
  TRZAW Ob (Observed values): 0%
[3]; safener 4.4 g/ha alone
  LAMPU Ob (Observed values): 0
[3]; safener 8.8 g/ha alone
  LAMPU Ob (Observed values): 0
[3]; safener 17.5 g/ha alone
  LAMPU Ob (Observed values): 0
[3]; safener 35 g/ha alone
  LAMPU Ob (Observed values): 0
[8]; safener 4.4 g/ha alone
  PAPRH Ob (Observed values): 0
[8]; safener 8.8 g/ha alone
  PAPRH Ob (Observed values): 0
[8]; safener 17.5 g/ha alone
  PAPRH Ob (Observed values): 0
[8]; safener 35 g/ha alone
  PAPRH Ob (Observed values): 0
[12]; safener 4.4 g/ha alone
  TRZDU Ob (Observed values): 0%
[12]; safener 8.8 g/ha alone
  TRZDU Ob (Observed values): 0%
[12]; safener 17.5 g/ha alone
  TRZDU Ob (Observed values): 0%
[12]; safener 35 g/ha alone
  TRZDU Ob (Observed values): 0%
Barley (HORVW); safener 4.4 g/ha alone
  HORVW Ob (Observed values): 0%
Barley (HORVW); safener 8.8 g/ha alone
  HORVW Ob (Observed values): 0%
Barley (HORVW); safener 17.5 g/ha alone
  HORVW Ob (Observed values): 0%
Barley (HORVW); safener 35 g/ha alone
  HORVW Ob (Observed values): 0%
